From patent publication US10471139B2, “Toll-like receptor agonists” (The University of Kansas, priority 2013, dated 2019)
Read-outs that look alike come from different tables or passages of the source.

Columns and labels:
Format in all cases: cell-based
human TLR7 = molecular target: T1, human TLR7 (Homo sapiens, UniProt Q9NYK1); assay: Human TLR7 reporter gene assay (NF-κB induction), HEK-Blue-7 cells; details: for TLR7-agonistic potency relative to compound 5: fold over compound 5
T1 construct: expressed in transfected cells; host or cells: HEK293 (HEK-Blue-7)
T1 sequence (Q9NYK1 27-1049): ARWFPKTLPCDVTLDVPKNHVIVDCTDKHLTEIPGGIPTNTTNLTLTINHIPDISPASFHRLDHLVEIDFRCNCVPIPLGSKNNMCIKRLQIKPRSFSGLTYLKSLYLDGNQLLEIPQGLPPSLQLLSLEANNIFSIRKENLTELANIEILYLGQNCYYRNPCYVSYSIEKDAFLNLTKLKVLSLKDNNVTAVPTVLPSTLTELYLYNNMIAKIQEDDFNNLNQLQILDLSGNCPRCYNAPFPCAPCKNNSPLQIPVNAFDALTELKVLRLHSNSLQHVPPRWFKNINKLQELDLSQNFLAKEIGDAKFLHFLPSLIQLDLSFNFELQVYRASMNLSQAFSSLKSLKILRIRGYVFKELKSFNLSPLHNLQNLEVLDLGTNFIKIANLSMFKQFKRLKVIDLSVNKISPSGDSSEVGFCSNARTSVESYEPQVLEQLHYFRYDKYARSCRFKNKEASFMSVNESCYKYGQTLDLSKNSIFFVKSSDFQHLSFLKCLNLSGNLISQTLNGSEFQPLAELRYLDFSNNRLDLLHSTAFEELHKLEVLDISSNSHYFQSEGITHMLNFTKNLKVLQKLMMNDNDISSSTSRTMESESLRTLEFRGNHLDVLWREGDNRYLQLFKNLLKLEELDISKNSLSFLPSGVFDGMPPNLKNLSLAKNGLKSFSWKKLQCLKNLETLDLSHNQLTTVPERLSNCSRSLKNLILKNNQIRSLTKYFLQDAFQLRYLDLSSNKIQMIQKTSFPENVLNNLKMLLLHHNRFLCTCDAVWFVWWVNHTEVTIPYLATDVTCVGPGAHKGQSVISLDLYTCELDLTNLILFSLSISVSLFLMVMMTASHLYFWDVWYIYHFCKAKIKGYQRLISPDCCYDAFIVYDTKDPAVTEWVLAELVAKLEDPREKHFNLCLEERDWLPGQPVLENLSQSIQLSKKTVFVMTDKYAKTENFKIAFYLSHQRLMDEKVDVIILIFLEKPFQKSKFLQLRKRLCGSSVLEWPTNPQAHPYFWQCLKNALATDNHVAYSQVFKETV
Excerpt: (§1) Human TLR-7/-8 Reporter Gene Assays (NF-κB Induction).
(§2) The induction of NF-κB was quantified using HEK-Blue-7 (hTLR7-specific) and HEK-Blue-8 (hTLR8-specific) cells. HEK293 cells stably co-transfected with human TLR7 or human TLR8, MD2, and secreted alkaline phosphatase (sAP), were maintained in HEK-Blue™ Selection medium containing zeocin and normocin. Stable expression of secreted alkaline phosphatase (sAP) under control of NF-κB/AP-1 promoters is inducible by appropriate TLR agonists, and extracellular sAP in the supernatant is proportional to NF-κB induction.
(§3) HEK293 cells stably co-transfected with the appropriate hTLR (or NOD) and secreted alkaline phosphatase (sAP) were maintained in HEK-Blue™ Selection medium. Stable expression of secreted alkaline phosphatase (sAP) under control of NF-κB/AP-1 promoters is inducible by appropriate TLR/NOD agonists, and extracellular sAP in the supernatant is proportional to NF-κB induction.

human TLR8 = molecular target: T2, human TLR8 (Homo sapiens, UniProt Q9NR97); assay: Human TLR8 reporter gene assay (NF-κB induction), HEK-Blue-8 cells; details: TLR7 series
T2 construct: expressed in transfected cells; host or cells: HEK293 (HEK-Blue-8)
T2 sequence (Q9NR97 27-1041): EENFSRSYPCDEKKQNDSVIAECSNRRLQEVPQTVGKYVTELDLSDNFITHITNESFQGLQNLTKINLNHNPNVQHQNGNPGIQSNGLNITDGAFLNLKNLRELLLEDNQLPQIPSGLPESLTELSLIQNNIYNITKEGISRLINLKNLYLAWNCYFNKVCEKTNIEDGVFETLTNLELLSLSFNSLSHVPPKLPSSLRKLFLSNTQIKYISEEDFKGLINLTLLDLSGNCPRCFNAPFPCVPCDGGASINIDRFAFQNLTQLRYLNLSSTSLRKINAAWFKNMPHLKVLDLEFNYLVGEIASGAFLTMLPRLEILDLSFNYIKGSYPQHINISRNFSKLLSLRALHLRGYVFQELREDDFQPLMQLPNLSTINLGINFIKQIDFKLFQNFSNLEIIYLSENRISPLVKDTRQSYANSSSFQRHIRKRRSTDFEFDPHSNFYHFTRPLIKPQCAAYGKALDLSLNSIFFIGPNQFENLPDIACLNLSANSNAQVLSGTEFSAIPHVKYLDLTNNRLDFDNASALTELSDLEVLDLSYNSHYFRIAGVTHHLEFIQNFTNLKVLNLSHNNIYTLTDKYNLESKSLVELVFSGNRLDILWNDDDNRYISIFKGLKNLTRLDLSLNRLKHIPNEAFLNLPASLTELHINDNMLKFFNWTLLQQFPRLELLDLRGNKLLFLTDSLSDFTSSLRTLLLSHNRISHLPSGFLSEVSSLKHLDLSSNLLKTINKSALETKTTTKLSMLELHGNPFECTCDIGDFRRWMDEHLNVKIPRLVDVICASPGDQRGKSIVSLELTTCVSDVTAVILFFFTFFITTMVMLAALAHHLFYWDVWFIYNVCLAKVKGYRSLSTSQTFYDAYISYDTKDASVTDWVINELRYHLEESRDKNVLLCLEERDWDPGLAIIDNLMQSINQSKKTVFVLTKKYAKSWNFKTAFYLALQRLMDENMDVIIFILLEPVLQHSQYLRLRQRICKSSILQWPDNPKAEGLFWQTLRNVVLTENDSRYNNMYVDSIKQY
Excerpt: as §1, §2, §3

human PBMCs = assay: IFN-α induction in human PBMCs (ELISA); details: PBMC
Description: Fresh human peripheral blood mononuclear cells (hPBMC) were isolated from human blood obtained by venipuncture with informed consent and as per institutional guidelines on Ficoll-Hypaque gradients as described elsewhere. Aliquots of PBMCs (10^5 cells in 100 μL/well) were stimulated for 12 h with graded concentrations of test compounds. Supernatants were isolated by centrifugation, and were assayed in triplicates using either high-sensitivity multi-subtype IFN-α ELISA kits (PBL Interferon Source, Piscataway, N.J. and R&D Systems, Inc., Minneapolis, Minn.), or analyte-specific multiplexed cytokine/chemokine bead array assays as reported by us previously.

[1] = primary screen, read-out: TLR7-specific agonistic activity EC50
[2] = human TLR7-specific reporter gene assay, Inactive = no activity up to 500 μg/mL
[3] = human TLR7-specific reporter gene assay, Inactive = no activity up to 500 μg/mL, read-out: hTLR7-agonistic Activity (EC50)

Row | hTLR7-agonistic Activity (EC50) (human TLR7; [2]) | EC50 (human TLR7; [3]) | SMILES | further results
1 |  | 280 nM | CCCCc1cc2c(nc(CCCC)n2Cc2ccccc2)c(N)n1 [Compound 23a, 1-Benzyl-2,6-dibutyl-1H-imidazo[4,5-c]pyridin-4-amine] | 
2 | Inactive |  | CCCCc1nc2c(N)nc(-c3ccccc3)cc2n1Cc1ccccc1 [Compound 23b, 1-Benzyl-2-butyl-6-phenyl-1H-imidazo[4,5-c]pyridin-4-amine] | 
3 | Inactive |  | CCCCc1nc2c(N)nc(-c3ccc(C(N)=O)cc3)cc2n1Cc1ccccc1 [Compound 23c, 4-(4-Amino-1-benzyl-2-butyl-1H-imidazo[4,5-c]pyridin-6-yl)benzamide] | 
4 | Inactive |  | CCCCc1nc2c(N)nc(-c3cccnc3)cc2n1Cc1ccccc1 [Compound 23d, 1-Benzyl-2-butyl-6-(pyridin-3-yl)-1H-imidazo[4,5-c]pyridin-4-amine] | 
5 | Inactive |  | CCCCc1nc2c(N)nc(-c3ccoc3)cc2n1Cc1ccccc1 [Compound 23e, 1-Benzyl-2-butyl-6-(furan-3-yl)-1H-imidazo[4,5-c]pyridin-4-amine] | 
6 | Inactive |  | CCCCc1nc2c(N)nc(-c3ccsc3)cc2n1Cc1ccccc1 [Compound 23f, 1-Benzyl-2-butyl-6-(thiophen-3-yl)-1H-imidazo[4,5-c]pyridin-4-amine] | 
7 |  | 280 nM | CCCCc1nc2c(N)nc(Cc3ccccc3)cc2n1Cc1ccccc1 [Compound 23g, 1,6-Dibenzyl-2-butyl-1H-imidazo[4,5-c]pyridin-4-amine] | TLR7-specific agonistic activity EC50 (human TLR7; primary screen): restored
8 |  | 1800 nM | CCCCc1nc2c(N)nc(Cc3ccc(C)cc3)cc2n1Cc1ccccc1 [Compound 23h, 1-Benzyl-2-butyl-6-(4-methylbenzyl)-1H-imidazo[4,5-c]pyridin-4-amine] | 
9 | Inactive |  | CCCCc1nc2c(N)nc(Cc3ccc(OC(F)(F)F)cc3)cc2n1Cc1ccccc1 [Compound 23i, 1-Benzyl-2-butyl-6-(4-(trifluoromethoxy)benzyl)-1H-imidazo[4,5-c]pyridin-4-amine] | 
10 |  | 570 nM | CCCCc1nc2c(N)nc(CCc3ccccc3)cc2n1Cc1ccccc1 [Compound 23j, 1-Benzyl-2-butyl-6-phenethyl-1H-imidazo[4,5-c]pyridin-4-amine] | TLR7-specific agonistic activity EC50 (human TLR7; primary screen): restored

Continued, molecule first:

Row | SMILES | hTLR7-agonistic Activity (EC50) (human TLR7; [2]) | EC50 (human TLR7; [3]) | further results
11 | CCCCc1nc2c(N)nccc2n1Cc1ccccc1 [Compound 5, 1-Benzyl-2-butyl-1H-imidazo[4,5-c]pyridin-4-amine] |  |  | EC50 (human TLR7; [1]): 1570 nM; TLR8 activity (human TLR8): negligible
12 | CCCCc1nc2c(N)nc(Cl)cc2n1Cc1ccccc1 [Compound 17, 1-Benzyl-2-butyl-6-chloro-1H-imidazo[4,5-c]pyridin-4-amine] | Inactive |  | TLR7-specific agonistic activity EC50 (human TLR7; primary screen): inactive
13 | CCCCc1nc2c(N)nc(N)cc2n1Cc1ccccc1 [Compound 19a, 1-Benzyl-2-butyl-1H-imidazo[4,5-c]pyridine-4,6-diamine] |  | 1250 nM | 
14 | CCCCNc1cc2c(nc(CCCC)n2Cc2ccccc2)c(N)n1 [Compound 19b, 1-Benzyl-N^6,2-dibutyl-1H-imidazo[4,5-c]pyridine-4,6-diamine] |  | 340 nM | 
15 | CCCCCCCNc1cc2c(nc(CCCC)n2Cc2ccccc2)c(N)n1 [Compound 19c, 1-Benzyl-2-butyl-N^6-heptyl-1H-imidazo[4,5-c]pyridine-4,6-diamine] |  | 760 nM | 
16 | CCCCc1nc2c(N)nc(Nc3ccccc3)cc2n1Cc1ccccc1 [Compound 19e, 1-Benzyl-2-butyl-N^6-phenyl-1H-imidazo[4,5-c]pyridine-4,6-diamine] |  | 1720 nM | 
17 | CCCCc1nc2c(N)nc(NCc3ccccc3)cc2n1Cc1ccccc1 [Compound 19f, N^6,1-Dibenzyl-2-butyl-1H-imidazo[4,5-c]pyridine-4,6-diamine] |  | 210 nM | TLR7-agonistic potency relative to compound 5 (human TLR7): ~7.6
18 | CCCCc1nc2c(N)nc(NCc3cccc(OC)c3)cc2n1Cc1ccccc1 [Compound 19h, 1-Benzyl-2-butyl-N^6-(3-methoxybenzyl)-1H-imidazo[4,5-c]pyridine-4,6-diamine] |  | 610 nM | 
19 | CCCCc1nc2c(N)nc(NCc3ccc(C(F)(F)F)cc3)cc2n1Cc1ccccc1 [Compound 19i, 1-Benzyl-2-butyl-N^6-(4-(trifluoromethyl)benzyl)-1H-imidazo[4,5-c]pyridine-4,6-diamine] |  | 1040 nM | 
20 | CCCCc1nc2c(N)nc(NCc3ccc(Cl)cc3)cc2n1Cc1ccccc1 [Compound 19j, 1-Benzyl-2-butyl-N^6-(4-chlorobenzyl)-1H-imidazo[4,5-c]pyridine-4,6-diamine] |  | 640 nM | 
21 | CCCCc1nc2c(N)nc(NCc3ccco3)cc2n1Cc1ccccc1 [Compound 19k, 1-Benzyl-2-butyl-N^6-(furan-2-ylmethyl)-1H-imidazo[4,5-c]pyridine-4,6-diamine] |  | 75 nM | TLR7-agonistic potency relative to compound 5 (human TLR7): approximately twenty-fold; EC50 (human PBMCs): 700 nM
22 | CCCCc1nc2c(N)nc(NCc3ccncc3)cc2n1Cc1ccccc1 [Compound 19l, 1-Benzyl-2-butyl-N^6-(pyridin-4-ylmethyl)-1H-imidazo[4,5-c]pyridine-4,6-diamine] |  | 250 nM | 
23 | CCCCc1nc2c(N)nc(NCc3cccc4ccccc34)cc2n1Cc1ccccc1 [Compound 19n, 1-Benzyl-2-butyl-N^6-(naphthalen-1-ylmethyl)-1H-imidazo[4,5-c]pyridine-4,6-diamine] | Inactive |  | TLR7-specific agonistic activity EC50 (human TLR7; primary screen): quiescent
24 | CCCCc1nc2c(N)nc(NCc3ccc(-c4ccccc4)cc3)cc2n1Cc1ccccc1 [Compound 19o, N^6-([1,1′-Biphenyl]-4-ylmethyl)-1-benzyl-2-butyl-1H-imidazo[4,5-c]pyridine-4,6-diamine] |  | 1090 nM | TLR7-specific agonistic activity EC50 (human TLR7; primary screen): active
25 | CCCCc1nc2c(N)nc(NCc3cccc(CN)c3)cc2n1Cc1ccccc1 [Compound 19q, N^6-(3-(aminomethyl)benzyl)-1-benzyl-2-butyl-1H-imidazo[4,5-c]pyridine-4,6-diamine] |  |  | EC50 (human TLR7; [1]): 370 nM
26 | CCCCc1nc2c(N)nc(NCc3ccc(CNc4cc5c(nc(CCCC)n5Cc5ccccc5)c(N)n4)cc3)cc2n1Cc1ccccc1 [Compound 19r, N^6,N^6′-(1,4-phenylenebis(methylene))bis(1-benzyl-2-butyl-1H-imidazo[4,5-c]pyridine-4,6-diamine)] |  | 1080 nM | 
27 | CCCCc1nc2c(N)nc(NCc3cccc(CNc4cc5c(nc(CCCC)n5Cc5ccccc5)c(N)n4)c3)cc2n1Cc1ccccc1 [Compound 19s, N^6,N^6′-(1,3-phenylenebis(methylene))bis(1-benzyl-2-butyl-1H-imidazo[4,5-c]pyridine-4,6-diamine)] | Inactive |  | 
